One may read the Kd as a measure of binding affinity in units of concentration. Lower therefore signals a tighter complex.

Our source for the Kd and Activity values is ChEMBL document CHEMBL3774307, “Synthesis, Characterization, and DNA Binding Profile of a Macrocyclic β-Sheet Analogue of ARC Protein” (ACS Med Chem Lett, 2015).

The nature of experiment [1]: Binding affinity to 5'-ATGACTCAT-3' AP-1 dsDNA (unknown origin) by isothermal titration calorimetry.
A short description of experiment [2]: Binding affinity to 5'-ATGACGTCAT-3' ATF/CREB dsDNA (unknown origin) by isothermal titration calorimetry.
A short description of experiment [3]: Binding affinity to 5'-GCGAGTAGAGCTTTTTGCTCTACTCGC-3' dsDNA (unknown origin) by tryptophan fluorescence spectroscopic analysis.
A short description of experiment [4]: Binding affinity to 5'-GCGAGCACAGCTTTTTGCTGTGCTCGC-3' dsDNA (unknown origin) by tryptophan fluorescence spectroscopic analysis.
Experiment [5] is described as follows: Binding affinity to 5'-GCGAGTAGAGCTTTTTGCTCTACTCGC-3' dsDNA (unknown origin) by ethidium bromide displacement assay.
The nature of experiment [6]: Binding affinity to 5'-GCGAGCACAGCTTTTTGCTGTGCTCGC-3' dsDNA (unknown origin) by ethidium bromide displacement assay.

Activity calls are given as the source filed them. The calls are words filed in the database; no cut-off is given here. Positions of bridges follow the written chain, without caps; N, C: chain ends. Non-standard residues stand in square brackets, D forms with d. Residues, ends and D or L forms follow the SMILES beside them. Chains are numbered I, II in the order given. Orn = NCCC[C@H](N)C(=O)O

Consider `CC(=O)N[C@@H](CC(=O)O)C(=O)N1CCC[C@H]1C(=O)N[C@@H](C)C(=O)N[C@@H](C)C(=O)N[C@@H](CC(C)C)C(=O)N[C@@H](CCCCN)C(=O)N[C@@H](CCCNC(=N)N)C(=O)N[C@@H](C)C(=O)N[C@@H](CCCNC(=N)N)C(=O)N[C@@H](CC(N)=O)C(=O)N[C@H](C(=O)N[C@@H](CCC(=O)O)C(=O)N[C@@H](C)C(=O)N[C@@H](C)C(=O)N[C@@H](CCCNC(=N)N)C(=O)N[C@@H](CCCNC(=N)N)C(=O)N[C@@H](CO)C(=O)N[C@@H](CCCNC(=N)N)C(=O)N[C@@H](C)C(=O)N[C@@H](CCCNC(=N)N)C(=O)N[C@@H](CCCCN)C(=O)N[C@@H](CC(C)C)C(=O)N[C@@H](CCC(N)=O)C(=O)N[C@@H](CCCNC(=N)N)C(=O)N[C@@H](CC(C)C)C(=O)N[C@@H](CCCCN)C(=O)N[C@@H](CCC(N)=O)C(N)=O)[C@@H](C)O` (Ac-DPAALKRARNTEAARRSRARKLQRLKQ-NH2), for which the Kd in experiment [1] and in experiment [2] was 20 µM in each case.

As for `CC(C)C[C@@H]1NC(=O)[C@H](CC(N)=O)NC(=O)[C@H](Cc2ccccc2)NC(=O)[C@H](CCC(N)=O)NC(=O)[C@H](CCCCN)NC(=O)[C@@H](N)CCCNC(=O)[C@H](Cc2c[nH]c3ccccc23)NC(=O)[C@H](CCCNC(=N)N)NC(=O)[C@H](CC(C)C)NC(=O)[C@H](CC(N)=O)NC(=O)[C@H](Cc2ccccc2)NC(=O)[C@H](CCC(N)=O)NC(=O)[C@H](CCCCN)NC(=O)[C@@H](N)CCCNC(=O)[C@H](Cc2c[nH]c3ccccc23)NC(=O)[C@H](CCCNC(=N)N)NC1=O` (I: H-[Orn]KQFNLRW / II: H-[Orn]KQFNLRW; amide I:1-II:C, I:C-II:1), the result in experiment [3], in experiment [4] and in experiment [6] was Active. In experiment [5], this compound came in with a dissociation constant (Kd) of 2.1 µM.
